“And” between values parts separate entries of the source, which are not always exact repeats. Equal values may be shown once. Bounds are passed on as bounds.

The first test deals with T1, CRTH2 receptor (hCRTH2) (Homo sapiens, UniProt Q9Y5Y4).
T1 construct: expressed in transfected cells; host or cells: HEK cells (HEK-hCRTH2 cell line), membranes
T1 sequence (Q9Y5Y4 1-395): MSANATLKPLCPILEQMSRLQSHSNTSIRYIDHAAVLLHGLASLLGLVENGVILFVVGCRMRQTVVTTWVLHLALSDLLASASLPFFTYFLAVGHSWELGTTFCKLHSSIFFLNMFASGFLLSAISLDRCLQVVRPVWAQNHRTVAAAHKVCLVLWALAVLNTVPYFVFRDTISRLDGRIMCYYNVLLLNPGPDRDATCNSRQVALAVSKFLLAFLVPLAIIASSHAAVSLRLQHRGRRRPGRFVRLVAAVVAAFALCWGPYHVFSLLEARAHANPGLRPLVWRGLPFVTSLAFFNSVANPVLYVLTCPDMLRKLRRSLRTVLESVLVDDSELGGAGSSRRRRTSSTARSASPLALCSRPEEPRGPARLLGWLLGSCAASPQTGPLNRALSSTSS
The test can be described thus: Radioligand binding assay ([3H]PGD2 competition, membranes of HEK-hCRTH2 cell line). As to conditions: 3.0 nM [3H]PGD2, HEK-hCRTH2 membranes, 60 min, room temperature; read-out: Ki. In outline:
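Membranes (8-20 μg protein) from HEK cells expressing human CRTH2 were incubated with [3H]PGD2 and competitor in 1% DMSO for 60 min at room temperature. Non-specific binding was defined with excess PGD2. Bound radioactivity was separated by filtration and counted by melt-on scintillation.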
Consider `C[C@@]1(c2nc3ccc(F)cc3[nH]2)CC(c2ccc3c(=O)n(-c4ccc(F)cc4)c(CCCCC(=O)O)nc3c2)=NO1` [Example 182], for which the Ki is at most 10 nM.

As for `C[C@]1(c2nc3ccc(F)cc3[nH]2)CC(c2ccc3c(=O)n(-c4ccc(F)cc4)c(CCCCC(=O)O)nc3c2)=NO1` [Example 183], the Ki was in the range of 10 to 50 nM.

On to `C[C@@]1(c2nc3ccc(F)cc3o2)CC(c2ccc3c(=O)n(-c4ccc(F)cc4)c(CCCCC(=O)O)nc3c2)=NO1` [Example 184], for which the Ki was ≤ 10 nM and 5.7 nM.

For `C[C@]1(c2nc3ccc(F)cc3o2)CC(c2ccc3c(=O)n(-c4ccc(F)cc4)c(CCCCC(=O)O)nc3c2)=NO1` [Example 185], the Ki was in the range of 10 to 50 nM.

On to `C[C@@]1(c2nc3ccc(Cl)cc3[nH]2)CC(c2ccc3c(=O)n(-c4ccc(F)cc4)c(CCCCC(=O)O)nc3c2)=NO1` [Example 186], for which the Ki was at most 10 nM.

With `C[C@]1(C(=O)Nc2cc(F)ccc2O)CC(c2ccc3c(=O)n(-c4ccc(F)cc4)c(CCCCC(=O)O)nc3c2)=NO1` [Example 189], the Ki was at most 10 nM.

In the case of `C[C@@]1(C(=O)Nc2cc(F)ccc2O)CC(c2ccc3c(=O)n(-c4ccc(F)cc4)c(CCCCC(=O)O)nc3c2)=NO1` [Example 190], the Ki was 50 to 100 nM and 96.2 nM.

As to `C[C@@]1(C(=O)Nc2ccccc2O)CC(c2ccc3c(=O)n(-c4ccc(F)cc4)c(CCCCC(=O)O)nc3c2)=NO1` [Example 191], the inhibition constant (Ki) was at most 10 nM.

On to `CC(C)(C)OC(=O)C1(C)CC(c2ccc3c(=O)n(-c4ccc(F)cc4)c(CCCCC(=O)O)nc3c2)=NO1` (centres unmarked) [Example 192], for which the Ki was at most 10 nM.

On to `CC1(c2cc3ccccn3n2)CC(c2ccc3c(=O)n(-c4ccc(F)cc4)c(CCCCC(=O)O)nc3c2)=NO1` (centres unmarked) [Example 193], for which the Ki is at most 10 nM.

Consider `CC1(c2nc3cc(F)c(F)cc3[nH]2)CC(c2ccc3c(=O)n(-c4ccc(F)cc4)c(CCCCC(=O)O)nc3c2)=NO1` (centres unmarked) [Example 194], for which the Ki was at most 10 nM.

On to `Cc1cccc2nc(C3(C)CC(c4ccc5c(=O)n(-c6ccc(F)cc6)c(CCCCC(=O)O)nc5c4)=NO3)[nH]c12` (centres unmarked) [Example 195], for which the Ki was at most 10 nM.

Take `C[C@@]1(c2nc3cc(C(F)(F)F)ccc3[nH]2)CC(c2ccc3c(=O)n(-c4ccc(F)cc4)c(CCCCC(=O)O)nc3c2)=NO1` [Example 196]: the inhibition constant Ki is at most 10 nM.

In the case of `CC1(c2nc3cc(Cl)c(F)cc3[nH]2)CC(c2ccc3c(=O)n(-c4ccc(F)cc4)c(CCCCC(=O)O)nc3c2)=NO1` (centres unmarked) [Example 197], the Ki is at most 10 nM.

For the molecule `CC1(c2nc3cc(F)cc(F)c3[nH]2)CC(c2ccc3c(=O)n(-c4ccc(F)cc4)c(CCCCC(=O)O)nc3c2)=NO1` (centres unmarked) [Example 198], the Ki was at most 10 nM.

For `CC1(C(=O)N2Cc3ccccc3C2)CC(c2ccc3c(=O)n(-c4ccc(F)cc4)c(CCCCC(=O)O)nc3c2)=NO1` (centres unmarked) [Example 199], the Ki is at most 10 nM.

In the case of `CC1(C(=O)O)CC(c2ccc3c(=O)n(-c4ccc(F)cc4)c(CCCCC(=O)O)nc3c2)=NO1` (centres unmarked) [Example 200], the Ki was in the range of 10 to 50 nM.

Regarding `C[C@@]1(c2cc3ccccn3n2)CC(c2ccc3c(=O)n(-c4ccc(F)cc4)c(CCCCC(=O)O)nc3c2)=NO1` [Example 201], the Ki was at most 10 nM.

Regarding `C[C@]1(c2cc3ccccn3n2)CC(c2ccc3c(=O)n(-c4ccc(F)cc4)c(CCCCC(=O)O)nc3c2)=NO1` [Example 202], the Ki is 10 to 50 nM.

Regarding `Cc1cccc2[nH]c([C@]3(C)CC(c4ccc5c(=O)n(-c6ccc(F)cc6)c(CCCCC(=O)O)nc5c4)=NO3)nc12` [Example 203], the Ki was at most 10 nM.

For the molecule `CC1(c2nc3cc(F)ccc3[nH]2)CC(c2ccc3c(=O)n(-c4ccc(Cl)cc4)c(CCCCC(=O)O)nc3c2)=NO1` (centres unmarked) [Example 205], the Ki was at most 10 nM.

In the case of `CC1(c2nc3cc(Cl)ccc3[nH]2)CC(c2ccc3c(=O)n(-c4ccc(Cl)cc4)c(CCCCC(=O)O)nc3c2)=NO1` (centres unmarked) [Example 206], the Ki was at most 10 nM.

As to `C[C@@]1(c2nc3cc(F)c(F)cc3[nH]2)CC(c2ccc3c(=O)n(-c4ccc(F)cc4)c(CCCCC(=O)O)nc3c2)=NO1` [Example 207], the Ki is 10 to 50 nM and 17 nM.

`C[C@]1(c2nc3cc(F)c(F)cc3[nH]2)CC(c2ccc3c(=O)n(-c4ccc(F)cc4)c(CCCCC(=O)O)nc3c2)=NO1` [Example 208]: the Ki is at most 10 nM.

`C[C@@]1(c2nc3cc(Cl)c(F)cc3[nH]2)CC(c2ccc3c(=O)n(-c4ccc(F)cc4)c(CCCCC(=O)O)nc3c2)=NO1` [Example 209]: the inhibition constant Ki is at most 10 nM.

In the case of `C[C@]1(c2nc3cc(Cl)c(F)cc3[nH]2)CC(c2ccc3c(=O)n(-c4ccc(F)cc4)c(CCCCC(=O)O)nc3c2)=NO1` [Example 210], the Ki is 10 to 50 nM.

`CC1(C(=O)N2CCc3ccccc32)CC(c2ccc3c(=O)n(-c4ccc(F)cc4)c(CCCCC(=O)O)nc3c2)=NO1` (centres unmarked) [Example 211]: the Ki is at most 10 nM.

In the case of `CC1(C(=O)N2CCCCC2)CC(c2ccc3c(=O)n(-c4ccc(F)cc4)c(CCCCC(=O)O)nc3c2)=NO1` (centres unmarked) [Example 212], the Ki was 10 to 50 nM.

For the molecule `C[C@@]1(c2nc3c(F)cc(F)cc3[nH]2)CC(c2ccc3c(=O)n(-c4ccc(F)cc4)c(CCCCC(=O)O)nc3c2)=NO1` [Example 213], the Ki is at most 10 nM.

As for `C[C@@]1(C(=O)N[C@H]2c3ccccc3C[C@H]2O)CC(c2ccc3c(=O)n(-c4ccc(F)cc4)c(CCCCC(=O)O)nc3c2)=NO1` [Example 215], the Ki is at most 10 nM.

Consider `C[C@]1(C(=O)N[C@@H]2c3ccccc3C[C@@H]2O)CC(c2ccc3c(=O)n(-c4ccc(F)cc4)c(CCCCC(=O)O)nc3c2)=NO1` [Example 216], for which the Ki fell in the range of 10 to 50 nM.

As to `CC1(c2nc3cc(F)c(F)cc3[nH]2)CC(c2ccc3c(=O)n(-c4ccc(Cl)cc4)c(CCCCC(=O)O)nc3c2)=NO1` (centres unmarked) [Example 219], the Ki is at most 10 nM.

On to `C[C@@]1(c2nc3ccc(F)cc3[nH]2)CC(c2ccc3c(=O)n(-c4ccc(Cl)cc4)c(CCCCC(=O)O)nc3c2)=NO1` [Example 220], for which the Ki was at most 10 nM.

Turning to `C[C@@]1(c2nc3ccc(Cl)cc3[nH]2)CC(c2ccc3c(=O)n(-c4ccc(Cl)cc4)c(CCCCC(=O)O)nc3c2)=NO1` [Example 222], the inhibitory constant (Ki) was at most 10 nM.

For `C[C@@]1(c2nc3cc(F)c(F)cc3[nH]2)CC(c2ccc3c(=O)n(-c4ccc(Cl)cc4)c(CCCCC(=O)O)nc3c2)=NO1` [Example 224], the Ki was at most 10 nM.

Consider `C[C@]1(c2nc3cc(F)c(F)cc3[nH]2)CC(c2ccc3c(=O)n(-c4ccc(Cl)cc4)c(CCCCC(=O)O)nc3c2)=NO1` [Example 225], for which the Ki fell in the range of 10 to 50 nM.

In the case of `CC1(c2ncc3ccccn23)CC(c2ccc3c(=O)n(-c4ccc(F)cc4)c(CCCCC(=O)O)nc3c2)=NO1` (centres unmarked) [Example 226], the inhibitory constant (Ki) was in the range of 10 to 50 nM.

`C[C@@]1(c2ncc3ccccn23)CC(c2ccc3c(=O)n(-c4ccc(F)cc4)c(CCCCC(=O)O)nc3c2)=NO1` [Example 227]: the Ki was in the range of 10 to 50 nM.

Regarding `CC1(C(=O)Nc2ccc(F)cc2O)CC(c2ccc3c(=O)n(-c4ccc(F)cc4)c(CCCCC(=O)O)nc3c2)=NO1` (centres unmarked) [Example 229], the Ki was at most 10 nM.

In the case of `CC1(c2cnc3ccccc3n2)CC(c2ccc3c(=O)n(-c4ccc(F)cc4)c(CCCCC(=O)O)nc3c2)=NO1` (centres unmarked) [Example 230], the Ki is 10 to 50 nM.

Regarding `C[C@@]1(C(=O)Nc2ccc(F)cc2O)CC(c2ccc3c(=O)n(-c4ccc(F)cc4)c(CCCCC(=O)O)nc3c2)=NO1` [Example 231], the Ki was at most 10 nM.

Take `C[C@@]1(C(=O)NCc2ccccc2)CC(c2ccc3c(=O)n(-c4ccc(F)cc4)c(CCCCC(=O)O)nc3c2)=NO1` [Example 234]: the Ki lay within 10 to 50 nM.

For the molecule `C[C@@]1(c2cccc(Br)c2)CC(c2ccc3c(=O)n(-c4ccc(F)cc4)c(CCCCC(=O)O)nc3c2)=NO1` [Example 235], the Ki was at most 10 nM.

Consider `C[C@]1(c2cccc(Br)c2)CC(c2ccc3c(=O)n(-c4ccc(F)cc4)c(CCCCC(=O)O)nc3c2)=NO1` [Example 236], for which the Ki was 10 to 50 nM.

In the case of `C[C@@]1(C(=O)NCc2ccc(C#N)cc2)CC(c2ccc3c(=O)n(-c4ccc(F)cc4)c(CCCCC(=O)O)nc3c2)=NO1` [Example 237], the Ki fell in the range of 10 to 50 nM.

For `C[C@@]1(C(=O)N2Cc3ccccc3C2)CC(c2ccc3c(=O)n(-c4ccc(F)cc4)c(CCCCC(=O)O)nc3c2)=NO1` [Example 238], the Ki was in the range of 10 to 50 nM.

For `C[C@@]1(C(=O)N2CC[C@H](c3ccccc3)C2)CC(c2ccc3c(=O)n(-c4ccc(F)cc4)c(CCCCC(=O)O)nc3c2)=NO1` [Example 239], the inhibition constant Ki was in the range of 10 to 50 nM.

For `COc1ccc(Cc2nc(-c3ccc4c(=O)n(-c5ccc(F)cc5)c(CCCCC(=O)O)nc4c3)no2)cc1` [Example 240], the Ki is at most 10 nM.

`O=C(O)CCCCc1nc2cc(-c3noc(CCc4ccc(F)cc4)n3)ccc2c(=O)n1-c1ccc(F)cc1` [Example 241]: the Ki was at most 10 nM.

As to `O=C(O)CCCCc1nc2cc(-c3noc(C4Cc5ccccc5C4)n3)ccc2c(=O)n1-c1ccc(F)cc1` [Example 242], the Ki is at most 10 nM.

Turning to `N#Cc1ccc(Cc2nc(-c3ccc4c(=O)n(-c5ccc(F)cc5)c(CCCCC(=O)O)nc4c3)no2)cc1` [Example 243], the inhibitory constant (Ki) was 10 to 50 nM.

Turning to `O=C(O)CCCCc1nc2cc(-c3noc(C4CCCc5ccccc54)n3)ccc2c(=O)n1-c1ccc(F)cc1` (centres unmarked) [Example 244], the inhibitory constant (Ki) was at most 10 nM.

The test is the same for the next values; noted with them: Ki, 3.0 nM [3H]PGD2, HEK-hCRTH2 membranes, 60 min, room temperature.
As for `C[C@]1(c2nc3ccccc3s2)CC(c2ccc3c(=O)n(-c4ccc(F)cc4)c(CCCCC(=O)O)nc3c2)=NO1` [Example 181], the Ki was at most 10 nM.

(Values after patent US8927559B2, “Quinazolinone-type compounds as CRTH2 antagonists” (Merck Sharp & Dohme Corp., priority 2010, dated 2015).)
